ChEMBL document CHEMBL1201862, “PubChem BioAssay data set” (2004)
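Tested at 5 concentrations; 48 h exposure; 96-well plates; endpoints linearly interpolated, else capped at highest concentration. GI50: concentration for 50% inhibition of growth.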 The source made the active and inactive calls. No stated cut-off is given here; in the data, active = GI50 up to about 1.1 µM and inactive = higher.

Assays:
Assay in all cases: inhibition of tumour cell growth, NCI panel, 48 h
[1] = system: SK-OV-3
[2] = system: SN12C
[3] = system: UACC-62
[4] = system: NCI-H226
[5] = system: IGROV-1
[6] = system: OVCAR-3
[7] = system: HCT-15
[8] = system: A549
[9] = system: SR
[10] = system: OVCAR-5
[11] = system: U-251
[12] = system: SK-MEL-5
[13] = system: DMS-114
[14] = system: OVCAR-8
[15] = system: RXF 393
[16] = system: MOLT-4
[17] = system: 786-0
[18] = system: NCI-H522
[19] = system: K562

Row | Compound | GI50 [1] | GI50 [2] | GI50 [3] | GI50 [4] | GI50 [5] | GI50 [6] | GI50 [7] [µM] | GI50 [8] | GI50 [9] | GI50 [10] | GI50 [11] | GI50 [12] | GI50 [13] | GI50 [14] | GI50 [15] | GI50 [16] | GI50 [17] | GI50 [18] | GI50 [19]
1 | CCCOP1(=O)C=C(C)C(Cl)=C(C)C1 (configuration not stated) | 38.3 µM (inactive) | 20.2 µM (inactive) | 15 µM (inactive) | 20.9 µM (inactive) | 34.6 µM (inactive) | 25.2 µM (inactive) | 20 | 21.6 µM (inactive) | 17.9 µM (inactive) | 29.8 µM (inactive) | 23.2 µM (inactive) | 18.7 µM (inactive) | 19.7 µM (inactive) | 27 µM (inactive) | 18 µM (inactive) | 17.6 µM (inactive) | 16.9 µM (inactive) | 15 µM (inactive) | 24.7 µM (inactive)
2 | O=c1cc(CO)oc2c3c(cc(O)c12)OCC(COC1OC(CO)C(O)C(O)C1O)=CC3 (configuration not stated) | > 100 µM (inactive) | > 100 µM (inactive) | > 100 µM (inactive) | > 100 µM (inactive) | > 100 µM (inactive) | > 100 µM (inactive) | > 100 | > 100 µM (inactive) | > 100 µM (inactive) | > 100 µM (inactive) | > 100 µM (inactive) | > 100 µM (inactive) | > 100 µM (inactive) | > 100 µM (inactive) | > 100 µM (inactive) | > 100 µM (inactive) | > 100 µM (inactive) | > 100 µM (inactive) | > 100 µM (inactive)
3 | COc1cc2c(cc1O)C1C(O)C(O)C=C3CCN(C2)C31 (configuration not stated) | 4.11 µM (inactive) | 2.84 µM (inactive) | 1.69 µM (inactive) | 2.55 µM (inactive) | 2.74 µM (inactive) | 2.67 µM (inactive) | 3.61 | 2.11 µM (inactive) | 2.08 µM (inactive) | 4.39 µM (inactive) | 2.98 µM (inactive) | 1.46 µM (inactive) | 1.09 µM (active) | 2.05 µM (inactive) | 1.45 µM (inactive) | 3.15 µM (inactive) | 2.39 µM (inactive) | 1.8 µM (inactive) | 2.51 µM (inactive)
4 | CC(=O)O[C@H]1C(=O)[C@@]2(C)C([C@H](OC(=O)c3ccccc3)[C@]3(O)C[C@H](OC(=O)[C@H](O)[C@H](NC(=O)c4ccccc4)c4ccc(Cl)cc4)C(C)=C1C3(C)C)C1(OC(C)=O)CO[C@@H]1C[C@@H]2O (some centres not stated) | 0.00163 µM (active) | 0.000841 µM (active) | 0.000376 µM (active) | 0.00229 µM (active) | 0.000136 µM (active) | 0.00222 µM (active) | 0.516 | 0.000678 µM (active) | 0.000119 µM (active) | 0.00294 µM (active) | 0.00182 µM (active) | 0.000736 µM (active) | < 0.0001 µM (active) | 0.00115 µM (active) | 0.0149 µM (active) | 0.01 µM (active) | 0.00711 µM (active) | 0.000356 µM (active) | 0.000807 µM (active)
5 | CC1=C(C(=O)Nc2ccccc2)C(c2ccc(C(C)C)cc2)C(C(=O)Nc2ccccc2)=C(C)N1 | 22.9 µM (inactive) | 13.6 µM (inactive) | 13.6 µM (inactive) | 21.3 µM (inactive) | 23.2 µM (inactive) | 18.2 µM (inactive) | 14.8 | 16.5 µM (inactive) | 10.6 µM (inactive) | 17.3 µM (inactive) | 16 µM (inactive) | 12.9 µM (inactive) | 7.26 µM (inactive) | 22.3 µM (inactive) | 11.8 µM (inactive) | 4.86 µM (inactive) | 15 µM (inactive) | 15.1 µM (inactive) | 12.1 µM (inactive)
6 | OCCNCCOc1ccc(/C(=C(/Cl)c2ccccc2)c2ccccc2)cc1 | 3 µM (inactive) | 5.3 µM (inactive) | 12.5 µM (inactive) | 21.6 µM (inactive) | 10.5 µM (inactive) | 12.1 µM (inactive) | 5.58 | 0.34 µM (active) | 3.34 µM (inactive) | 15.1 µM (inactive) | 8.43 µM (inactive) | 6.25 µM (inactive) | 15.2 µM (inactive) | 13.5 µM (inactive) | 0.637 µM (active) | 1.69 µM (inactive) | 9.68 µM (inactive) | 14 µM (inactive) | 2.85 µM (inactive)
7 | C=C1C(=O)OC2/C=C(\C)C(OC(C)=O)C3OC3C(C)(O)CC(OC(=O)/C(C)=C/C)C12 (configuration not stated) | 20.1 µM (inactive) | 20 µM (inactive) | 11 µM (inactive) | 10 µM (inactive) | 16.9 µM (inactive) | 3.9 µM (inactive) | 12.8 | 18.7 µM (inactive) | 2.96 µM (inactive) | 17.4 µM (inactive) | 12.1 µM (inactive) | 13.7 µM (inactive) | 5.45 µM (inactive) | 9.93 µM (inactive) | 3.85 µM (inactive) | 5.05 µM (inactive) | 4.73 µM (inactive) | 1.62 µM (inactive) | 4.35 µM (inactive)
8 | CC1(C)c2ccccc2N2C(c3ccccc3)=NOC21C (configuration not stated) | > 100 µM (inactive) | > 100 µM (inactive) | > 100 µM (inactive) | > 100 µM (inactive) | > 100 µM (inactive) | > 100 µM (inactive) | > 100 | > 100 µM (inactive) | > 100 µM (inactive) | > 100 µM (inactive) | > 100 µM (inactive) | > 100 µM (inactive) | > 100 µM (inactive) | > 100 µM (inactive) | > 100 µM (inactive) | > 100 µM (inactive) | > 100 µM (inactive) | > 100 µM (inactive) | > 100 µM (inactive)
9 | O=c1c2ccccc2c2nc3ccccc3nc2n1C1CCCCC1 | > 100 µM (inactive) | > 100 µM (inactive) | > 100 µM (inactive) | > 100 µM (inactive) | > 100 µM (inactive) | > 100 µM (inactive) | > 100 | > 100 µM (inactive) | > 100 µM (inactive) | > 100 µM (inactive) | > 100 µM (inactive) | > 100 µM (inactive) | > 100 µM (inactive) | 86.3 µM (inactive) | > 100 µM (inactive) | > 100 µM (inactive) | > 100 µM (inactive) | > 100 µM (inactive) | > 100 µM (inactive)
10 | CC(C)N(CCn1c2c3ccccc3ccc2c2oc(=O)c3ccccc3c21)C(C)C | > 100 µM (inactive) | > 100 µM (inactive) | > 100 µM (inactive) | > 100 µM (inactive) | > 100 µM (inactive) | > 100 µM (inactive) | > 100 | > 100 µM (inactive) | > 100 µM (inactive) | > 100 µM (inactive) | > 86.9 µM (inactive) | – | > 100 µM (inactive) | > 48.6 µM (inactive) | > 100 µM (inactive) | > 100 µM (inactive) | 50.4 µM (inactive) | > 100 µM (inactive) | > 100 µM (inactive)
11 | Cc1c2n(c(=O)[nH]c1=O)C1OC(CO)C(N=[N+]=[N-])C1O2 (configuration not stated) | > 100 µM (inactive) | > 100 µM (inactive) | > 100 µM (inactive) | > 100 µM (inactive) | > 100 µM (inactive) | > 100 µM (inactive) | > 100 | > 100 µM (inactive) | > 100 µM (inactive) | – | > 100 µM (inactive) | > 100 µM (inactive) | > 100 µM (inactive) | > 100 µM (inactive) | 28 µM (inactive) | > 100 µM (inactive) | > 100 µM (inactive) | 90.6 µM (inactive) | 92.5 µM (inactive)
